Experimental data reported in patent publication US10561638B2, “Methods for treating dependence” (Biotie Therapies, Inc., priority 2007, dated 2020).

Columns and labels:
[1] = Safety and tolerability in squirrel monkeys; type: in vivo
Method: Six squirrel monkeys, three non-lesioned and three lesioned (received 2 mg/kg MPTP 3 months prior), were used to study safety and tolerability of nepicastat. Animals received nepicastat at a concentration of 0.5, 2.0, or 5.0 mg/kg twice daily, (10 am and 2 pm), for 5 days with a two-day washout between the different dose levels. Nepicastat was administered via oral syringe at the 0.5, 2.0 […] mg/kg doses and as oral gavage at the 5.0 mg/kg dose.

[2] = tested on: short-term or working memory in rats; test: Delayed-matching-to-position (DMTP) test; type: in vivo, Sprague Dawley rats
Method: In the present DMTP study, rats were trained to remember the position of a lever across a scheduled delay of either 0, 8, 16 or 32 s in order to earn food reward. […] Another group of rats received only vehicle treatment throughout the experiment. […] The dependent measures in the present study included percentage of correct choices, the latency to make choice responses and the number of trials which the animals were able to complete during the 70 min test sessions. Changes in the former measure may indicate changes in memory and/or attentional function whereas changes in the latter two measures may be indicative of other non-cognitive effects of the drugs. Matching to position training began next. This and all subsequent training was conducted with the partitions fitted into the operant boxes. The sessions were initially 50 minutes long. Rats were placed in the operant box and the session began when the houselight was illuminated. Following a 30 s intertrial interval (ITI), one of the two levers (the sample lever) was inserted into the chamber. The lever remained inserted into the chamber until a lever-press response occurred. […] As soon as the magazine flap was pressed the magazine light was extinguished and both levers were inserted. […] The magazine light remained on until the flap was pressed. […] A 30 s ITI was initiated before the commencement of a new trial. The lever inserted as the sample lever was semi-randomly determined such that the right and lefthand levers were presented as the sample lever 8 times in a block of 16 trials. Following 24 sessions, the animals were performing the matching to position task with a high degree of accuracy. On Session 25 a variable delay interval was interposed between the depression of the sample lever and presentation of the levers on the choice trial. After a response to the sample lever, the choice levers were inserted following the first flap press occurring after either a 0 s (immediate), 4, 8 or 16 s delay. The order of the four types of trials (0, 4, 8 or 16 s delay) was semi-randomly determined with the constraint that in a 16 trial block, each delay occurred 4 times; twice on a left trial and twice on a right trial. […] The same trial was reinstated following the end of the ITI. From Session 25 onward the time-out period following incorrect choices was omitted and the session length was increased to 70 minutes. […] Due to poor performance at the 64 s delay, however, this delay was not used in any further sessions. On Session 59, delays of 0, 8, 16 and 32 s were used. These delays were used in all subsequent sessions. Only 51 of the 56 rats completed more than 24 trials (correction plus non-correction) during Session 59. These rats were selected and semi-randomly assigned to the following 7 groups such that the groups were matched on performance (percent correct, response latency and number of trials completed): […] Thus, the drug treatments administered to the seven groups during the 11 consecutive days of the present experiment were: The data collected and analyzed in the present DMTP study include 1) the percentage of correct responses; 2) the latency between performance of a response to the sample lever and the performance of the choice response and 3) the total number of correction and non-correction trials completed. The former two dependent measures were collected for the non-correction trials only. […] Two-way analysis of variance (ANOVA) with drug treatment as the between-subjects factor and delay (0, 8, 16 or 32 s) as the within-subjects factor was used to analyze percentage of correct choices and response latency. These analyses were conducted separately for each block of data. Significant interactions were followed by a one-way ANOVA which was conducted at each delay. A significant main effect from a one-way ANOVA was followed by a two-tailed Dunnett's t-test. One-way ANOVA followed by a post hoc Dunnett's test, when appropriate, was used to analyze the mean number of trials completed. […]

[3] = target: protein kinase (non-selective); test: Enzyme selectivity assay; type: biochemical

In the case of `Cl.NCc1c[nH]c(=S)n1[C@H]1CCc2c(F)cc(F)cc2C1` [nepicastat, (S)-5-Aminomethyl-1-(5,7-difluoro-1,2,3,4-tetrahydronaphth-2-yl)-2,3-dihydro-2-thioxo-1H-imidazole hydrochloride], the “adverse finding in one non-lesioned monkey” value ([1]; 5.0 mg/kg twice daily, final two days) is reported as “light beige colored loose stools”, the tolerability ([1]; 0.5 and 2.0 mg/kg twice daily, 5 days) is reported as “well tolerated at the two lower doses” and the all dependent measures ([2]; Block 2) is reported as “no significant effects on any of the dependent measures”. For the same compound, the “latency to perform the choice response vs vehicle” value ([2]; Block 4, 32 s delay, nepicastat 10.0 mg/kg) was “longer latency to perform the choice response”, the “response latency, number of trials completed” value ([2]; Block 5) was “did not significantly affect” and the choice accuracy ([2]; Block 5, 10 and 30 mg/kg at the 32 s delay) was “marked dose- and delay-dependent impairment in choice accuracy”. For the same compound, the “improvement of DMTP performance” value ([2]; administered alone, 10 days) was “does not appear to induce memory enhancing effects”, the “reversal of the effects of scopolamine” value ([2]; day 11 scopolamine test) was “did not appear to reverse the effects of scopolamine” and the “days of dosing after which memory-disrupting effects are apparent” value ([2]; rat, in vivo) was 8 days. For the same compound, the IC50 [3] was > 10 µM.
